Measured values published in US12435046B2, “Alkynyl quinazoline compounds” (Black Diamond Therapeutics, Inc., priority 2019, dated 2025).

Assays:
Type in all cases: cell-based
Conditions in all cases: Table A; BaF3 cells, 3 days
[1] = target: T1, EGFR wt (Homo sapiens, UniProt P00533); experiment: BaF3 cell proliferation assay (CellTiterGlo), EGFR wt
T1 construct: expressed in transfected cells; host or cells: BaF3 (murine pro-B) cells, retroviral transduction with pMXs-IRES-Blasticidin
Procedure: (§1) Retroviral Production: EGFR mutants were subcloned into pMXs-IRES-Blasticidin (RTV-016, Cell Biolabs, San Diego, CA). Retroviral expression vector retrovirus was produced by transient transfection of HEK 293T cells with the retroviral EGFR mutant expression vector pMXs-IRES-Blasticidin (RTV-016, Cell Biolabs), pCMV-Gag-Pol vector and pCMV-VSV-G-Envelope vector. Briefly, HEK 293T/17 cells were plated in 100 mm collagen coated plate (354450, Corning Life Sciences, Tewksbury, MA) (4×10^5 per plate) and incubated overnight. The next day, retroviral plasmids (3 ng of EGFR mutant, 1.0 ng of pCMV-Gag-Pol and 0.5 ng pCMV-VSV-G) were mixed in 500 n1 of Optimem (31985, Life Technologies). The mixture was incubated at room temperature for 5 min and then added to Optimem containing transfection reagent Lipofectamine (11668, Invitrogen) and incubated for 20 minutes. Mixture was then added dropwise to HEK 293T cells. The next day the medium was replaced with fresh culture medium and retrovirus was harvested @ 24 and 48 hrs.
(§2) Generation of EGFR mutant stable cell lines: BaF3 cells (1.5E5 cells) were infected with 1 ml of viral supernatant supplemented with 8 ng/ml polybrene by centrifuging for 30 min at 1000 rpm. Cells were placed in a 37° C. incubator overnight. Cells were then spun for 5 minutes to pellet the cells. Supernatant was removed and cells re-infected a fresh 1 ml of viral supernatant supplemented with 8 ng/ml polybrene by centrifuging for 30 min at 1000 rpm. Cells were placed in 37° C. incubator overnight. Cells were then maintained in RPMI containing 10% Heat Inactivated FBS, 2% L-glutamine containing 10 ng/ml IL-3. After 48 hours cells were selected for retroviral infection in 10 […] for one week. Blasticidin resistant populations were washed twice in phosphate buffered saline before plating in media lacking IL-3 to select for IL-3 independent growth.
(§3) Assay for cell proliferation: BaF3 cell lines were resuspended at 1.3E5 c/ml in RPMI containing 10% Heat Inactivated FBS, 2% L-glutamine and 1% Pen/Strep and dispensed in triplicate (17.5E4 c/well) into 96 well plates. To determine the effect of drug on cell proliferation, cells incubated for 3 days in the presence of vehicle control or test drug at varying concentrations. Inhibition of cell growth was determined by luminescent quantification of intracellular ATP content using CellTiterGlo (Promega), according to the protocol provided by the manufacturer. Comparison of cell number on day 0 versus 72 hours post drug treatment was used to plot dose-response curves. The number of viable cells was determined and normalized to vehicle-treated controls. Inhibition of proliferation, relative to vehicle-treated controls was expressed as a fraction of 1 and graphed using PRISM® software (Graphpad Software, San Diego, CA). EC50 values were determined with the same application.

[2] = target: T2, EGFR V3 (Homo sapiens, UniProt P00533, DELINS30-297G); experiment: BaF3 cell proliferation assay (CellTiterGlo), EGFR V3
T2 construct: expressed in transfected cells; host or cells: BaF3 (murine pro-B) cells, retroviral transduction with pMXs-IRES-Blasticidin
Procedure: as §1, §2, §3

[3] = target: T3, HER2 S310F (Homo sapiens, UniProt P04626, S310F); experiment: BaF3 cell proliferation assay (CellTiterGlo), HER2 S310F
T3 construct: expressed in transfected cells; host or cells: BaF3 (murine pro-B) cells

[4] = target: T4, HER2 YVMA (Homo sapiens, UniProt P04626, INS775YVMA); experiment: BaF3 cell proliferation assay (CellTiterGlo), HER2 YVMA
T4 construct: expressed in transfected cells; host or cells: BaF3 (murine pro-B) cells
T4 sequence (P04626 with tags, fused parts or gaps INS775YVMA): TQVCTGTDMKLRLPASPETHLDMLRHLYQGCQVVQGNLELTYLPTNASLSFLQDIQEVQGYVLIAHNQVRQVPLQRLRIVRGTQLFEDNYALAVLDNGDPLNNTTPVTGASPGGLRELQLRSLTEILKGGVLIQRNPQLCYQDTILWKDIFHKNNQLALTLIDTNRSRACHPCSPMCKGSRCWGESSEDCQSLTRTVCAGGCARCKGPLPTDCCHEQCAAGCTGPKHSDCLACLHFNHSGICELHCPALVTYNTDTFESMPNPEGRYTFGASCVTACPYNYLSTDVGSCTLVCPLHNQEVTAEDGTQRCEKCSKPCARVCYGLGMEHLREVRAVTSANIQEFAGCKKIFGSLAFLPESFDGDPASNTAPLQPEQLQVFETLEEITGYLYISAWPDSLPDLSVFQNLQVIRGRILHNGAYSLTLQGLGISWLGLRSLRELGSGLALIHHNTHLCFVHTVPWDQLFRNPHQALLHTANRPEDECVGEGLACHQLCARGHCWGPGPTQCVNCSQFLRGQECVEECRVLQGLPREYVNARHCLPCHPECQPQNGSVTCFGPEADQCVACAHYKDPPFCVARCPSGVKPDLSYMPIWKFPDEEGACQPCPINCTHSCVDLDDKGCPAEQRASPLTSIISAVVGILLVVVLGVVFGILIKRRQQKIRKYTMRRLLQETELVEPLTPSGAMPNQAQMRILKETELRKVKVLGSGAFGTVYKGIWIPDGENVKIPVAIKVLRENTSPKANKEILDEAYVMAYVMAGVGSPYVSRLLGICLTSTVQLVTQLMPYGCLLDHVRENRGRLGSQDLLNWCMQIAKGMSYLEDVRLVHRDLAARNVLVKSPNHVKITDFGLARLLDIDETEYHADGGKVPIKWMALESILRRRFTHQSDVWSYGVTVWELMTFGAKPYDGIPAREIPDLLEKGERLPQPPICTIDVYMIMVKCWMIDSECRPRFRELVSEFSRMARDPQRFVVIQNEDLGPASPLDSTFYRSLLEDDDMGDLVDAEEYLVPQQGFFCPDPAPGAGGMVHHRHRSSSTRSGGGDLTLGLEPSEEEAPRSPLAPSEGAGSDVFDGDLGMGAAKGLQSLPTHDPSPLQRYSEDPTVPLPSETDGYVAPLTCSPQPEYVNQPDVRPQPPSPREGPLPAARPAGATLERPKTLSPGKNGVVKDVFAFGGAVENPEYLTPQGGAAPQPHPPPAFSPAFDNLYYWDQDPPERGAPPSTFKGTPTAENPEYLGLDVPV

T2 sequence (P00533 with tags, fused parts or gaps DELINS30-297G): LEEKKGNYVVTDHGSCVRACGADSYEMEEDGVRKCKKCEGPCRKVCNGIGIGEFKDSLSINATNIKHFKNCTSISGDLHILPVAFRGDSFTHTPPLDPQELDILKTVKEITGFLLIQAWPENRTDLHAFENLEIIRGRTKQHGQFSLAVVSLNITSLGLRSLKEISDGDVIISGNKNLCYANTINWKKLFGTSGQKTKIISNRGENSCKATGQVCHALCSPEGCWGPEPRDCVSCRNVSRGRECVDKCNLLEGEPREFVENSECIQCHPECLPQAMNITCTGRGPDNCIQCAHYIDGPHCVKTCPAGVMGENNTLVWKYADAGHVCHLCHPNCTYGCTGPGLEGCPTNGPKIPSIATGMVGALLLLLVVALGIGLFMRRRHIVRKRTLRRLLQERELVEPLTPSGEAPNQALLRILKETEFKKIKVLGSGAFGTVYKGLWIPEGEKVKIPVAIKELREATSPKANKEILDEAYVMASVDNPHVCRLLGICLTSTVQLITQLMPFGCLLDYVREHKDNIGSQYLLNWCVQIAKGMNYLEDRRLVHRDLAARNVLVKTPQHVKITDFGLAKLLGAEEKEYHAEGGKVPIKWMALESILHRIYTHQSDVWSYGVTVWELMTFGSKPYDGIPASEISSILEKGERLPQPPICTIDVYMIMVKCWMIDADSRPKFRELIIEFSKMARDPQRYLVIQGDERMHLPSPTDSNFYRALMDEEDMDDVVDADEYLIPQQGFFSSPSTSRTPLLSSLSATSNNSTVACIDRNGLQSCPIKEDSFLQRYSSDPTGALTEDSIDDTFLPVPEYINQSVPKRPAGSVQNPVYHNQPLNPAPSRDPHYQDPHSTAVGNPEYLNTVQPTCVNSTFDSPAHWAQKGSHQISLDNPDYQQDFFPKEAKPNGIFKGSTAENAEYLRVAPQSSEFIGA
T1 sequence (P00533 25-1210): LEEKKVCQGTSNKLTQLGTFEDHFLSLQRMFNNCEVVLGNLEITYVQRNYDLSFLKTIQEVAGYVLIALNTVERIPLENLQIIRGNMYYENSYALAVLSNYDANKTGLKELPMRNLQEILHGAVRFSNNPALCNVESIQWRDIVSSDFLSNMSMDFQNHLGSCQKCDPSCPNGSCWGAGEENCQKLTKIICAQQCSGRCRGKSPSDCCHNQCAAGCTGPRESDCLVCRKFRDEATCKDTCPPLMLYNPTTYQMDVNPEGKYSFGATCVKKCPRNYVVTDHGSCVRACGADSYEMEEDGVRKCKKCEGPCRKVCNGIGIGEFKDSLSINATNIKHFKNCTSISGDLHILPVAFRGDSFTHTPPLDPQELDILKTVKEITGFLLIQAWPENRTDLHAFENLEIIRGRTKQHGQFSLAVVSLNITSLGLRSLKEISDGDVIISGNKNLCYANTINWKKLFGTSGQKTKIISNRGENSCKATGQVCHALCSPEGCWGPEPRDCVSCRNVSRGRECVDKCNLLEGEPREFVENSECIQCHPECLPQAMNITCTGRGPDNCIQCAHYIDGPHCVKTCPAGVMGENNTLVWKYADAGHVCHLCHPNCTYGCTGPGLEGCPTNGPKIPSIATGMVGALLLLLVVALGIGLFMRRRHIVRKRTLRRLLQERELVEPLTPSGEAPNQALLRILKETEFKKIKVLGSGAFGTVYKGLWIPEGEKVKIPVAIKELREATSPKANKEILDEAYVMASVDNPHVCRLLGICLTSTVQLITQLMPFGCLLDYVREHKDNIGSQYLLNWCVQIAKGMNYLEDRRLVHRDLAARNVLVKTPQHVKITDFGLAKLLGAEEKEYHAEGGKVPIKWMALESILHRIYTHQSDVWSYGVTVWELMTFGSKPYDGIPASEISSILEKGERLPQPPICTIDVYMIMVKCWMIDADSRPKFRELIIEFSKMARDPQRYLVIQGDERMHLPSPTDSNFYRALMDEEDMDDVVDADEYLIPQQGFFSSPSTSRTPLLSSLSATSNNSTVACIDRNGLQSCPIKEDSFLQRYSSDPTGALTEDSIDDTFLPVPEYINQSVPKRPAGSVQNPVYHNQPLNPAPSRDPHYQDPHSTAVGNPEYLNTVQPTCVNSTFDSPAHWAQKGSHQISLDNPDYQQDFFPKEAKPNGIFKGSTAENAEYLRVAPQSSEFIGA
T3 sequence (P04626 23-1255 S310F): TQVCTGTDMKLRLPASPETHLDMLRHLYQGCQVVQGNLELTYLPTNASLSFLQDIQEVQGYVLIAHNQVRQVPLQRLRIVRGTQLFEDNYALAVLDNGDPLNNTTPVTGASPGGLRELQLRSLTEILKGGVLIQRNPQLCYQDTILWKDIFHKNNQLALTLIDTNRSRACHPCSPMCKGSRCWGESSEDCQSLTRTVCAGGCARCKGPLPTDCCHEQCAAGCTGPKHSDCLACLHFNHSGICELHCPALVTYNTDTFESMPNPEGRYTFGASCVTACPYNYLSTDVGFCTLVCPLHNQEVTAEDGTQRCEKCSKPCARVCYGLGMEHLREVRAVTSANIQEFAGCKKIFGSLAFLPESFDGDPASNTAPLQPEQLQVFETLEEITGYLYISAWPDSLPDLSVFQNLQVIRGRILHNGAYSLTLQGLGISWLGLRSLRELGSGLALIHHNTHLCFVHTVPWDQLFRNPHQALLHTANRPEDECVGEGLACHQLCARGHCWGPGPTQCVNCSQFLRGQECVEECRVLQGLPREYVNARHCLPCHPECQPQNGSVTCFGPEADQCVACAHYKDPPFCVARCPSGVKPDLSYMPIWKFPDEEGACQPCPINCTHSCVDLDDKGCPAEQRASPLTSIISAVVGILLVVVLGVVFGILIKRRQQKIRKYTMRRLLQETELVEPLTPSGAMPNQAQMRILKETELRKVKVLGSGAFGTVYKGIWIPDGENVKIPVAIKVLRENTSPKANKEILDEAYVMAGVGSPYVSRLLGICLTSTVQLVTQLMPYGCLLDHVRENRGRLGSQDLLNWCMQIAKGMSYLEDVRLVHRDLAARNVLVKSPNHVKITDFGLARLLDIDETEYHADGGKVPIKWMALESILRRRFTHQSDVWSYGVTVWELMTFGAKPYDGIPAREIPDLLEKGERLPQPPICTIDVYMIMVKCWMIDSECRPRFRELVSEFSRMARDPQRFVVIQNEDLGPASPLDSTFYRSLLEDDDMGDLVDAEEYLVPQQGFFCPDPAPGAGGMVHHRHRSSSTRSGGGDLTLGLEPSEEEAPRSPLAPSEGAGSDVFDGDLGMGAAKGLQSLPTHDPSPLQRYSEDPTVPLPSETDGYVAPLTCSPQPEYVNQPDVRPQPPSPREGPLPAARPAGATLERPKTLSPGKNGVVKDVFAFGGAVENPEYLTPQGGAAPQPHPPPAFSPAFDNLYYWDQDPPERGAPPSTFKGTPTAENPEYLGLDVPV

Compound: C=CC(=O)Nc1cc2c(Nc3cccc(Cl)c3F)ncnc2cc1C#C[C@]1(F)CCN(C)C1 [Compound 46, N-{4-[(3-chloro-2-fluorophenyl)amino]-7-{2-[(3R)-3-fluoro-1-methyl-pyrrolidin-3-yl]ethynyl}quinazolin-6-yl}prop-2-enamide]
- IC50 [1]: 100 to 500 nM
- IC50 [2]: ≤ 50 nM
- IC50 [3]: 100 to 500 nM
- IC50 [4]: > 500 nM

Compound: C=CC(=O)Nc1cc2c(Nc3cccc(Cl)c3F)ncnc2cc1C#CC1(C)CN(C)C2(COC2)C1 (centres unmarked) [Compound 47, N-(4-((3-chloro-2-fluorophenyl)amino)-7-((5,7-dimethyl-2-oxa-5-azaspiro[3.4]octan-7-yl)ethynyl)quinazolin-6-yl)acrylamide]
- IC50 [1]: > 500 nM
- IC50 [2]: 100 to 500 nM
- IC50 [3]: > 500 nM
- IC50 [4]: > 500 nM

Compound: C=CC(=O)Nc1cc2c(Nc3cccc(Cl)c3F)ncnc2cc1C#C[C@]12C[C@H]1CN(C1COC1)C2 [Compound 48, N-(4-((3-chloro-2-fluorophenyl)amino)-7-(((1S,5R)-3-(oxetan-3-yl)-3-azabicyclo[3.1.0]hexan-1-yl)ethynyl)quinazolin-6-yl)acrylamide]
- IC50 [1]: 100 to 500 nM
- IC50 [2]: 100 to 500 nM
- IC50 [3]: 100 to 500 nM
- IC50 [4]: > 500 nM

Compound: C=CC(=O)Nc1cc2c(Nc3cccc(Cl)c3F)ncnc2cc1C#C[C@]12C[C@H]1CN(C)C2 [Compound 49, N-(4-((3-chloro-2-fluorophenyl)amino)-7-(((1S,5R)-3-methyl-3-azabicyclo[3.1.0]hexan-1-yl)ethynyl)quinazolin-6-yl)acrylamide]
- IC50 [1]: 50 to 100 nM
- IC50 [2]: ≤ 50 nM
- IC50 [3]: 50 to 100 nM
- IC50 [4]: 100 to 500 nM

Compound: C=CC(=O)Nc1cc2c(Nc3cccc(Cl)c3F)ncnc2cc1C#C[C@@]12C[C@@H]1CN(C1COC1)C2 [Compound 50, N-(4-((3-chloro-2-fluorophenyl)amino)-7-(((1R,5S)-3-(oxetan-3-yl)-3-azabicyclo[3.1.0]hexan-1-yl)ethynyl)quinazolin-6-yl)acrylamide]
- IC50 [1]: 50 to 100 nM
- IC50 [2]: ≤ 50 nM
- IC50 [3]: 50 to 100 nM
- IC50 [4]: 100 to 500 nM

Compound: C=CC(=O)Nc1cc2c(Nc3cccc(Cl)c3F)ncnc2cc1C#C[C@@]12C[C@@H]1CN(C)C2 [Compound 51, N-(4-((3-chloro-2-fluorophenyl)amino)-7-(((1R,5S)-3-methyl-3-azabicyclo[3.1.0]hexan-1-yl)ethynyl)quinazolin-6-yl)acrylamide]
- IC50 [1]: 50 to 100 nM
- IC50 [2]: ≤ 50 nM
- IC50 [3]: ≤ 50 nM
- IC50 [4]: 100 to 500 nM

Compound: C=CC(=O)Nc1cc2c(Nc3cccc(Cl)c3F)ncnc2cc1C#CC1(OC)CCN(C)C1 (centres unmarked) [Compound 52, N-(4-((3-chloro-2-fluorophenyl)amino)-7-((3-methoxy-1-methylpyrrolidin-3-yl)ethynyl)quinazolin-6-yl)acrylamide]
- IC50 [1]: 100 to 500 nM
- IC50 [2]: ≤ 50 nM
- IC50 [3]: 50 to 100 nM
- IC50 [4]: 100 to 500 nM

Compound: C=CC(=O)Nc1cc2c(Nc3cccc(Cl)c3F)ncnc2cc1C#C[C@]1(C)CCCN(C)C1 [Compound 53, (S)—N-(4-((3-chloro-2-fluorophenyl)amino)-7-((1,3-dimethylpiperidin-3-yl)ethynyl)quinazolin-6-yl)acrylamide]
- IC50 [1]: 100 to 500 nM
- IC50 [2]: 100 to 500 nM
- IC50 [3]: 100 to 500 nM
- IC50 [4]: > 500 nM

Compound: C=CC(=O)Nc1cc2c(Nc3cccc(Cl)c3F)ncnc2cc1C#C[C@@]1(C)CCCN(C)C1 [Compound 54, (R)—N-(4-((3-chloro-2-fluorophenyl)amino)-7-((1,3-dimethylpiperidin-3-yl)ethynyl)quinazolin-6-yl)acrylamide]
- IC50 [1]: > 500 nM
- IC50 [2]: 50 to 100 nM
- IC50 [3]: 100 to 500 nM
- IC50 [4]: > 500 nM

Compound: C=CC(=O)Nc1cc2c(Nc3cccc(Cl)c3F)ncnc2cc1C#CC1(C)CN(C)CC1(F)F (centres unmarked) [Compound 55, N-(4-((3-chloro-2-fluorophenyl)amino)-7-((4,4-difluoro-1,3-dimethylpyrrolidin-3-yl)ethynyl)quinazolin-6-yl)acrylamide]
- IC50 [1]: > 500 nM
- IC50 [2]: 100 to 500 nM
- IC50 [3]: 100 to 500 nM
- IC50 [4]: > 500 nM

Compound: C=CC(=O)Nc1cc2c(Nc3cccc(Cl)c3F)ncnc2cc1C#CC1(C)CCN(CCF)C1 (centres unmarked) [Compound 56, N-(4-((3-chloro-2-fluorophenyl)amino)-7-((1-(2-fluoroethyl)-3-methylpyrrolidin-3-yl)ethynyl)quinazolin-6-yl)acrylamide]
- IC50 [1]: 100 to 500 nM
- IC50 [2]: ≤ 50 nM
- IC50 [3]: 100 to 500 nM
- IC50 [4]: > 500 nM

Compound: CNC(=O)Nc1cc2c(Nc3cccc(Cl)c3F)ncnc2cc1C#CC1(C)CCN(C)C1 (centres unmarked) [Compound 57, 1-(4-((3-chloro-2-fluorophenyl)amino)-7-((1,3-dimethylpyrrolidin-3-yl)ethynyl)quinazolin-6-yl)-3-methylurea]
- IC50 [1]: ≤ 50 nM
- IC50 [2]: > 500 nM
- IC50 [3]: > 500 nM
- IC50 [4]: > 500 nM

Compound: C=CC(=O)Nc1cc2c(Nc3cccc(Cl)c3F)ncnc2cc1C#C[C@]1(C)CCN(C2COC2)C1 [Compound 58, (S)—N-(4-((3-chloro-2-fluorophenyl)amino)-7-((3-methyl-1-(oxetan-3-yl)pyrrolidin-3-yl)ethynyl)quinazolin-6-yl)acrylamide]
- IC50 [1]: 100 to 500 nM
- IC50 [2]: ≤ 50 nM
- IC50 [3]: 50 to 100 nM
- IC50 [4]: > 500 nM

Compound: C=CC(=O)Nc1cc2c(Nc3cccc(Cl)c3F)ncnc2cc1C#C[C@@]1(C)CCN(C2COC2)C1 [Compound 59, (R)—N-(4-((3-chloro-2-fluorophenyl)amino)-7-((3-methyl-1-(oxetan-3-yl)pyrrolidin-3-yl)ethynyl)quinazolin-6-yl)acrylamide]
- IC50 [1]: 100 to 500 nM
- IC50 [2]: ≤ 50 nM
- IC50 [3]: 100 to 500 nM
- IC50 [4]: > 500 nM

Compound: C=CC(=O)Nc1cc2c(Nc3cccc(Cl)c3F)ncnc2cc1C#CC1(F)CCN(C)C1 (centres unmarked) [Compound 60, N-(4-((3-chloro-2-fluorophenyl)amino)-7-((3-fluoro-1-methylpyrrolidin-3-yl)ethynyl)quinazolin-6-yl)acrylamide]
- IC50 [1]: 100 to 500 nM
- IC50 [2]: ≤ 50 nM
- IC50 [3]: 50 to 100 nM
- IC50 [4]: 100 to 500 nM

Compound: C=CC(=O)Nc1cc2c(Nc3ccc(OCc4cccc(F)c4)c(Cl)c3)ncnc2cc1C#CC1(C)CCOC1 (centres unmarked) [Compound 61, N-(4-((3-chloro-4-((3-fluorobenzyl)oxy)-phenyl)amino)-7-((3-methyltetrahydrofuran-3-yl)ethynyl)quinazolin-6-yl)acrylamide]
- IC50 [1]: > 500 nM
- IC50 [2]: 100 to 500 nM
- IC50 [3]: 50 to 100 nM
- IC50 [4]: 100 to 500 nM

Compound: C=CC(=O)Nc1cc2c(Nc3cccc(Cl)c3F)ncnc2cc1C#CC1(C(F)(F)F)CCN(C)C1 (centres unmarked) [Compound 62, N-(4-((3-chloro-2-fluorophenyl)amino)-7-((1-methyl-3-(trifluoromethyl)pyrrolidin-3-yl)ethynyl)quinazolin-6-yl)acrylamide]
- IC50 [1]: > 500 nM
- IC50 [2]: 100 to 500 nM
- IC50 [3]: 100 to 500 nM
- IC50 [4]: > 500 nM

Compound: C=CC(=O)Nc1cc2c(Nc3ccc(Cl)c(Cl)c3F)ncnc2cc1C#CC1(C)CCOC1 (centres unmarked) [Compound 63, N-(4-((3,4-dichloro-2-fluorophenyl)amino)-7-((3-methyltetrahydrofuran-3-yl)ethynyl)quinazolin-6-yl)acrylamide]
- IC50 [1]: 100 to 500 nM
- IC50 [2]: ≤ 50 nM
- IC50 [3]: 100 to 500 nM
- IC50 [4]: > 500 nM

Compound: C=CC(=O)Nc1cc2c(Nc3cccc(Cl)c3F)ncnc2cc1C#CC12CC1CN(C1COC1)C2 (centres unmarked) [Compound 64, N-(4-((3-chloro-2-fluorophenyl)amino)-7-((3-(oxetan-3-yl)-3-azabicyclo[3.1.0]hexan-1-yl)ethynyl)quinazolin-6-yl)acrylamide]
- IC50 [1]: 100 to 500 nM
- IC50 [2]: ≤ 50 nM
- IC50 [3]: 100 to 500 nM
- IC50 [4]: 100 to 500 nM

Compound: C=CC(=O)Nc1cc2c(Nc3cccc(Cl)c3F)ncnc2cc1C#CC12CC1CN(C)C2 (centres unmarked) [Compound 65, N-(4-((3-chloro-2-fluorophenyl)amino)-7-((3-methyl-3-azabicyclo[3.1.0]hexan-1-yl)ethynyl)quinazolin-6-yl)acrylamide]
- IC50 [1]: 100 to 500 nM
- IC50 [2]: ≤ 50 nM
- IC50 [3]: 50 to 100 nM
- IC50 [4]: 100 to 500 nM
